Measurements reported in patent publication US20240358711A1, “COMPOUNDS FOR NEUTROPHIL ROS INHIBITION” (IMMUNYX PHARMA LTD., priority 2021, published 2024).
Where a name gives a salt, the structure may show the parent alone. Read-outs that look alike come from different tables or passages of the source.

Tests used:
human neutrophils [1] = experiment: ROS production by PMA-stimulated purified human neutrophils; format: cell-based; settings: for IC50 / <90% ROS Inhibition / ROS production in the presence of PMA: human neutrophils; for IC50 / <90% ROS Inhibition: PMA stimulated, average of several experiments; for IC50: read-out: ROS Inhibition IC50; for <90% ROS Inhibition: concentration; for ROS production in the presence of PMA: 10 uM concentration; for ROS inhibitor effectiveness over 100 nm to 10 uM: PMA stimulated human neutrophils
Description: Following blood withdrawal, blood was overlaid on 3% dextran in 0.9% NaCl in a 1:1 ratio and left at RT for 25 min to allow erythrocyte sedimentation. Residual RBCs were lysed by adding water for 30 sec and stopped by adding 2.5% BSA/5×PBS. WBCs were then diluted in 0.5% BSA/1×PBS and total number of cells was counted. Purification of pure neutrophils (HDNs) was done by overlaying blood after RBC sedimentation in a 1:1 ratio on Histopaque-1077. After 30 min centrifugation at 400 g, pure neutrophils were found at the bottom of the tube (pellet). Mononuclear cells (LDF—low density fraction) settle between the Histopaque-1077 and the 0.9% saline.
(§1) A high-throughput screen was performed to find molecules that inhibit ROS production by neutrophils. Extracted human neutrophils were purified and kept in culture. The cells were then exposed to various drugs and ROS production was monitored over time. Compounds that also scavenged hydrogen peroxide (H2O2) and/or lowered neutrophil ATP levels (reflecting toxicity) were removed. The top hits from the screen were selected for further analysis.
Neutrophils not exposed to PMA were used as a negative control and neutrophils exposed to only PMA were used as a positive control.
(§2) PMA was again used to stimulate ROS production in neutrophils and the effects of the drugs were monitored at increasing concentration levels.

[2] = system: whole blood samples from healthy human subjects; experiment: ROS levels in whole blood samples from healthy human subjects, without or with PMA; format: cell-based; settings: for reduction in ROS in whole blood treated with PMA: higher dose (5 uM)
Description: A high and low concentration were tested for each compound. […] Next, the compounds were tested on whole blood treated with PMA.

mouse neutrophils = experiment: ROS inhibition in mouse neutrophils; format: cell-based; settings: average of several experiments; for <90% ROS Inhibition: concentration
Source text: as §2

[3] = system: neutrophils isolated from blood; experiment: Neutrophil survival by FACS (Annexin V and PI double positive = dead); format: cell-based; settings: 2 hours culture, drugs at 1 uM
Description: To test this hypothesis, neutrophils isolated from blood were cultured with the various drugs (concentration 1 uM) for 2 hours and then neutrophil survival was monitored by FACS. Cells that were double positive for Anexin V staining and PI staining were considered dead.

LPS treated mice = experiment: ROS in the lungs of LPS treated mice (lung inflammation model); format: in vivo, mouse
Description: (5B) Bar graph of relative ROS levels in the lungs of LPS treated mice, LPS treated mice administered free Stelazine, Stelazine loaded naked liposomes and Stelazine loaded targeting-peptide decorated liposomes. (5C) Images of ROS levels in LPS treated lungs administered various compositions of Stelazine and/or naked or peptide-decorated liposomes (referred to as “TENN”). 4 hours following treatment with the described molecules, animals were injected with luminol and ROS in the lungs was quantified using IVIS.
Mice were given 150 ug LPS by inhalation and left for 2 days. […] The LPS was inhaled on Day 0, and then the dosing of the drugs was performed in the evening of day 1 and the morning of day 2. Three different formulations of Stelazine were tested by IV administration: free Stelazine administered in PBS, Stelazine loaded into liposomes in PBS, and Stelazine loaded into liposomes decorated with neutrophil targeting peptides in PBS.

[4] = Circulating ALT levels in mice after drug administration; format: in vivo, mouse; settings: 48 hours after drug administration
Description: One of the benefits of targeting of these drugs directly to neutrophils is to decrease their unwanted side effects. As mentioned early, many of these compounds have known side effects with respect to neutrophil differentiation in the bone marrow. Targeting to mature neutrophils decreases this unwanted side effect. To test if side effects are indeed decreased liver enzyme levels were measured in the mice after administration of free Stelazine and neutrophil targeted Stelazine. […] It is thus clear that neutrophil targeting is particularly beneficial for the selected compounds.

human neutrophils [5] = experiment: High-throughput screen for molecules that inhibit ROS production by neutrophils (PMA and fMLP stimulation); format: cell-based
Description: as §1, with “analysis. 160 basal hits were tested for their ability to inhibit neutrophil ROS production. 64 molecules were able to inhibit ROS production in the presence of PMA activation. 67 molecules were able to inhibit ROS production in the presence of N-Formylmethionine-leucyl-phenylalanine (fMLP). Of those 47 molecules were able to inhibit ROS production by both stimulation methods.” for “analysis.”

Row | Compound | IC50 (human neutrophils [1]; Neutrophil) [µM] | IC50 (mouse neutrophils; Neutrophil) [µM] | <90% ROS Inhibition (human neutrophils [1]) [µM] | ROS production in the presence of PMA (human neutrophils [1]) | <90% ROS Inhibition (mouse neutrophils) [µM] | other results
1 | CC(C)(C)C(=O)/C(=C\c1cccc([N+](=O)[O-])c1)n1cncn1 [Nexinhib] |  |  | 5 |  |  | IC50 (human neutrophils [1]): 1.5 µM; ROS inhibition in whole blood treated with PMA ([2]; 5 uM): less strong effect; reduction in ROS in whole blood treated with PMA [2]: > 50%; IC50 (mouse neutrophils): 8 µM
2 | CN(C)C(=O)c1cc2cnc(Nc3ccc(N4CCNCC4)cn3)nc2n1C1CCCC1 [Ribociclib] |  |  |  | more modest reduction |  | 
3 | CC(=O)c1c(C)c2cnc(Nc3ccc(N4CCNCC4)cn3)nc2n(C2CCCC2)c1=O [Palbociclib] |  |  |  | strongly reduced ROS production |  | 
4 | CC(C)(C)C(=O)Oc1ccc(S(=O)(=O)Nc2ccccc2C(=O)NCC(=O)O)cc1 [Sivelestat] |  |  |  |  |  | increase in cell death as compared to control [3]: < 6%
5 | COC(=O)C1=C(C)NC(C)=C(C(=O)OCC(C)C)C1c1ccccc1[N+](=O)[O-] (centres unmarked) [Nisoldipine] |  |  |  | more modest reduction |  | 
6 | CN(C)CCCN1c2ccccc2CCc2ccc(Cl)cc21 [Clomipramine] |  |  | 5 | more effective | 7 | ROS inhibitor effectiveness over 100 nm to 10 uM (human neutrophils [1]): most effective ROS inhibitors; ROS inhibition in whole blood treated with PMA ([2]; 5 uM): less strong effect; reduction in ROS in whole blood treated with PMA [2]: > 50%
7 | CN1CCN(CCCN2c3ccccc3Sc3ccc(C(F)(F)F)cc32)CC1 [Stelazine, Trifluoperazine] | 1 | 2.5 | 4 | more effective | 4 | ROS levels in LPS treated lungs, luminol/IVIS imaging (LPS treated mice; 4 hours following treatment): had an effect on ROS levels; reduction in ROS in the lungs as compared to the untreated control (LPS treated mice; IV, 48 hours after LPS administration): ~50%; alanine aminotransferase (ALT) levels in the blood [4]: increased alanine aminotransferase (ALT) levels in the blood; ROS inhibitor effectiveness over 100 nm to 10 uM (human neutrophils [1]): most effective ROS inhibitors
8 | CN(C)CCC=C1c2ccccc2CCc2ccccc21 [Amitriptyline] |  |  |  |  |  | ROS inhibition in the screen (human neutrophils [5]): inhibited ROS production
9 | CN(C)C/C=C/C(=O)Nc1cc2c(Nc3ccc(F)c(Cl)c3)ncnc2cc1O[C@H]1CCOC1 [Afatanib Maleate, Afatinib Maleate] |  | 2.5 |  |  | 8 | 
10 | CCCCCCCCCCCCCC(=O)O[C@@H]1[C@@H](C)[C@@]2(O)[C@@H](C=C(CO)C[C@]3(O)C(=O)C(C)=C[C@@H]23)[C@@H]2C(C)(C)[C@]12OC(C)=O [PMA, Phorbol 12-myristate 13-acetate] |  |  |  |  |  | increase in cell death as compared to control [3]: ~50%

Second part, led by results:

Row | IC50 (human neutrophils [1]; Neutrophil) [µM] | IC50 (mouse neutrophils; Neutrophil) [µM] | Compound | <90% ROS Inhibition (human neutrophils [1]) [µM] | ROS production in the presence of PMA (human neutrophils [1]) | <90% ROS Inhibition (mouse neutrophils) [µM] | other results
11 | 0.2 | 0.15 | COc1cc(Nc2c(C#N)cnc3cc(OCCCN4CCN(C)CC4)c(OC)cc23)c(Cl)cc1Cl [Bosutinib] | 0.75 | more effective | 1.5 | ROS inhibitor effectiveness over 100 nm to 10 uM (human neutrophils [1]): most effective ROS inhibitors; ROS inhibition in whole blood treated with PMA ([2]; 1 uM): this inhibition was quickly lost; ROS inhibition in whole blood treated with PMA ([2]; 5 uM): highly effective at ROS inhibition
12 | 1 | 1.5 | CCN1CCN(Cc2ccc(Nc3ncc(F)c(-c4cc(F)c5nc(C)n(C(C)C)c5c4)n3)nc2)CC1 [Abemaciclib] | 2 | more effective | 5 | ROS inhibitor effectiveness over 100 nm to 10 uM (human neutrophils [1]): most effective ROS inhibitors
13 | 2.5 | 2 | CCCCOc1ccc(C(=O)CCN2CCCCC2)cc1 [Dyclonine] | 7 |  | 5 | ROS levels relative to unstimulated neutrophils (human neutrophils [1]; 10 μM): 44 % of negative control cells
14 | 4 |  | CN(C)C/C=C/C(=O)Nc1cc2c(Nc3ccc(F)c(Cl)c3)ncnc2cc1O[C@H]1CCOC1 [Afatinib] | 9 | more modest reduction |  | 
